What was measured:
[1] = system: Panc02 pancreatic tumors; test: Orthotopic Panc02 pancreatic tumors in mice, intercalated combinations (Example 8); assay type: in vivo, mouse; settings: for mean tumor volume: Day 30, CDN 5 mg/kg i.t. Day 9, i.v. Days 16, 23, gemcitabine 100 mg/kg i.p. Days 12, 19, 26; for # Mice with metastases / Average # metastases per mouse: Day 30 post-implantation, CDN 5 mg/kg, gemcitabine 100 mg/kg i.p.
Procedure: • Species evaluated: mouse • Tumor model: Panc02 • Treatment tested: intercalated combinations of a CDN (either CL592, CL614 or CL656) and gemcitabine • Reference compounds: gemcitabine, CL592, CL614 and CL656 • Parameters evaluated: tumor growth, and incidence of metastases
On Day 1, 55 mice (C57/BL6; male; 10 weeks old; 23 g to 25 g) each received an intrapancreatic injection of Panc02 cells (1×10^6 cells in 50 μL serum-free medium).
Day 9: Groups 3 to 8 each received an intratumoral injection of the appropriate CDN (CL592, CL614 or CL656, respectively; 50 μL; 5 mg/kg in 0.9% saline)
Day 12: Group 2 and Groups 6 to 8 each received an intraperitoneal injection of gemcitabine (200 μL; 100 mg/kg in 0.9% saline)
Day 16: Groups 3 to 8 each received an intravenous injection of the appropriate CDN (CL592, CL614 or CL656, respectively; 50 μL; 5 mg/kg in 0.9% saline)
Day 19: Group 2 and Groups 6 to 8 were treated as on Day 12.
Day 23: Groups 3 to 8 were treated as on Day 16.
Day 26: Group 2 and Groups 6 to 8 were treated as on Days 12 and 19.
Day 30: Each mouse was checked for tumor presence and metastases.

[2] = system: Panc02 tumors; test: Murine model of orthotopic Panc02 pancreatic tumors (Example 4); assay type: in vivo, mouse; settings: for INCIDENCE OF METASTASIS / PRE-SACRIFICE MORTALITY: Day 34
Description: • Species evaluated: mouse • Tumor model: Panc02 (murine pancreatic tumor cell line) • Treatments tested: gemcitabine monotherapy, c-AIMP monotherapy, and gemcitabine combined with c-AIMP • Clinical parameters evaluated: tumor volume, incidence of metastasis and mortality • Administration routes evaluated: intravenous (i.v.) or intratumoral (i.t.) injection (depending on experiment) • On Day 1, 30 mice (C57BL/6; male) received an orthotopic injection of Panc02 tumor cells (1×10^6) in their pancreas. The mice were then divided into six groups of five animals. Each group received a different treatment, as outlined below: • Group 1: saline (by i.v. injection) on Days 7, 10, 14, 17, 21 and 24; • Group 2: gemcitabine monotherapy (100 mg/kg; i.p.); on Days 7, 10, 14, 17, 21 and 24; • Group 3: c-AIMP monotherapy (25 mg/kg; i.t.) on Days 7 and 21; • Group 4: c-AIMP monotherapy (25 mg/kg; i.v.) on Days 7, 14 and 21; • Group 5: c-AIMP (25 mg/kg; i.t.) followed (5 h later) by gemcitabine (100 mg/kg; i.p.) on Day 7; and gemcitabine (100 mg/kg; i.p.) on Days 10, 14, 17, 21 and 24; • Group 6: c-AIMP (25 mg/kg; i.v.) followed (5 h later) by gemcitabine (100 mg/kg; i.p.) on Day 7; and gemcitabine (100 mg/kg; i.p.) on Days 10, 14, 17, 21 and 24;
At days 7, 21/24, 28 and 34, the mice were assessed for tumor volume, incidence of metastasis and mortality.

[3] = system: Type I interferons; test: Type I interferon induction in sera of CDN-treated mice (Example 3); assay type: in vivo, mouse; settings: 10 mg/kg i.v., 4 h post-treatment, FIG. 5
Description: (§1) • Species evaluated: mouse • Cyclic dinucleotides tested: CL604, CL606, CL609, CL611 and CL614 • Reference compound: c-AIMP and saline • Cytokines evaluated: IFN-α/β (using RAW ISG54 reporter cells) and IL-6 (by ELISA)
(§2) Twenty-one mice (Swiss; female; mean age: 8 weeks) were divided into seven groups of three: one group served as control (saline) and the other six groups were each treated with a cyclic dinucleotide (either c-AIMP, CL604, CL606, CL609, CL611 or CL614). On Day −7, blood samples for basal cytokine levels were collected from all mice and stored at −20° C. until analysis. On Day 1, the mice were treated with either 200 μL of physiologic serum (containing 0.9% NaCl) or 200 μL of a solution of a cyclic dinucleotide (dose: 10 mg/kg) in physiologic serum (containing 0.9% NaCl), by intravenous (i.v.) injection. Blood samples were collected from the mice at 4 h post-injection, and then stored at −20° C. until analysis. Cytokine induction was measured in the sera from the blood samples.

[4] = system: IL-6; test: IL-6 induction in sera of CDN-treated mice, ELISA (Example 3); assay type: in vivo, mouse; settings: 10 mg/kg i.v., 4 h post-treatment, FIG. 6
Description: Interleukin-6 was quantified using an enzyme-linked immunoassay (ELISA) according to the manufacturer's instructions (R&D Systems).
as §1, §2

[5] = system: PC-1.0 tumors; test: Hamster model of orthotopic PC-1.0 pancreatic tumors (Example 5); assay type: in vivo; settings: gemcitabine monotherapy 50 mg/Kg i.p.
Description: • Species evaluated: hamster • Tumor model: PC-1.0 (hamster pancreatic tumor cell line (Egami, Tomioka, Tempero, Kay, & Pour, 1991)) • Treatments tested: gemcitabine monotherapy, and gemcitabine combined with c-AIMP • Clinical parameters evaluated: tumor volume, incidence of metastasis and mortality • Administration routes evaluated: intravenous (i.v.) vs. intratumoral (i.t.) injection (depending on experiment) for CL592 • On Day 1, 22 hamsters (Golden Syrian) received an orthotopic injection of PC-1.0 tumor cells (1×10^6) in the tail of their pancreas. The hamsters were then divided into four groups of five or six animals. Each group received a different treatment, as outlined below: • Group 1 (n=5) received saline (by i.v. injection) on Days 8, 15 and 22; • Group 2 (n=6): c-AIMP (25 mg/Kg; i.v.) followed by gemcitabine (50 mg/Kg; i.p.) on Day 8; and gemcitabine (50 mg/Kg; i.p.) on Days 15 and 22; • Group 3 (n=6): c-AIMP (25 mg/Kg; i.t.) followed by gemcitabine (50 mg/Kg; i.p.) on Day 8; and gemcitabine (50 mg/Kg; i.p.) on Days 15 and 22; • Group 4 (n=5): gemcitabine monotherapy (50 mg/Kg; i.p.) at Days 8, 15 and 22.
At days 8, 21/24, 28 and 34, the mice were assessed for tumor volume, incidence of metastasis and mortality.

[6] = system: DT6606 pancreatic tumors; settings: Day 36 vs pre-treatment tumor volume; CL592 i.t. Day 13, 5 mg/kg i.v. Days 20, 27; gemcitabine 100 mg/kg i.p. Days 16, 23, 30
Procedure: • Tumor line evaluated: DT6606 (Partecke, 2011) • Treatment tested: intercalated combination of CL592 and gemcitabine • Reference compound: gemcitabine • Parameter evaluated: tumor growth
On Day 1, 20 mice (C57/BL6; female; 10 weeks old; 18 g to 22 g) received an intrapancreatic injection of DT6606 cells (5×10^5 cells in 30 μL serum-free medium). One mouse was sacrificed before treatment due to a renal deformation.
The groups were then treated according to the treatment regimen below.
Day 13: Groups 1 and 2 received an intratumoral injection of saline solution (50 μL), and Groups 3 and 4, an intratumoral injection of CL592 (50 μL; 2.5 mg/mL in saline buffer;).
Day 16: Groups 2 and 4 received an intraperitoneal tail injection of gemcitabine (100 μL solution/100 g body mass; 10 mg/mL in saline buffer; dose: 100 mg/kg).
Day 20: Groups 3 and 4 received an intravenous tail injection of CL592 (200 μL; 0.5 mg/mL in saline buffer; dose: 5 mg/kg).
Day 23: Groups 2 and 4 were treated as on Day 16.
Day 27: Groups 3 and 4 were treated as on Day 20.
Day 30: Groups 2 and 4 were treated as on Days 16 and 23.
Day 36: Each mouse was checked for tumor presence. The volume of each observed tumor was measured and the mice were then sacrificed.
Tumor growth (expressed as a percentage) was calculated as follows:
(([tumor volume at day 36]−[pre-treatment tumor volume])/[pre-treatment tumor volume])×100%

[7] = c-AIMP 25 mg/kg i.t., alone or with gemcitabine 100 mg/kg i.p.
[8] = c-AIMP 25 mg/kg i.v., alone or with gemcitabine 100 mg/kg i.p.
[9] = gemcitabine monotherapy 100 mg/kg i.p.

Nc1ncnc2c1ncn2C1OC2COP(=O)(S)O[C@@H]3C(COP(=O)(S)O[C@H]2[C@H]1F)OC(n1cnc2c(=O)[nH]cnc21)[C@@H]3F (mixture of isomers) [CL656, c-[2′FdAMP(S)-2′FdIMP(S)]]
mean tumor volume [1]: 340.2 mm^3 | # Mice with metastases [1]: 40% (2/5) | Average # metastases per mouse [1]: 3

Nc1ncnc2c1ncn2[C@@H]1O[C@@H]2COP(=O)(O)O[C@H]3[C@@H](O)[C@H](n4cnc5c(=O)[nH]cnc54)O[C@@H]3COP(=O)(O)O[C@H]2[C@H]1O [CL592, c-AIMP]
mean tumor volume [1]: 231.0 mm^3 | # Mice with metastases [1]: 20% (1/5) | Average # metastases per mouse [1]: 2 | INCIDENCE OF METASTASIS [2, 7]: 0% | PRE-SACRIFICE MORTALITY [2, 7]: 0% | INCIDENCE OF METASTASIS [2, 8]: 0% | PRE-SACRIFICE MORTALITY [2, 8]: 0% | reducing tumor growth ([2]; FIG. 7, c-AIMP 25 mg/kg i.v. or i.t., comparison among all treatments): most effective ones at reducing tumor growth

Nc1ncnc2c1ncn2C1OC2COP(=O)(O)O[C@H]3C(n4cnc5c(=O)[nH]cnc54)OC(COP(=O)(O)O[C@@H]1[C@@H]2O)[C@H]3O (stereo partly drawn) [CL611, (2′,2′)c-AIMP]
induction of Type I interferons in sera [3]: all of the tested cyclic dinucleotides except CL611 strongly induced Type I interferons | induction of IL-6 in sera [4]: all of the cyclic dinucleotides except CL611 induced IL-6

Nc1ncnc2c1ncn2C1OC2COP(=O)(O)O[C@@H]3C(COP(=O)(O)O[C@H]2[C@H]1F)OC(n1cnc2c(=O)[nH]cnc21)[C@@H]3F (stereo partly drawn) [CL614, c-(2′FdAMP-2′FdIMP)]
mean tumor volume [1]: 318.6 mm^3 | # Mice with metastases [1]: 40% (2/5) | Average # metastases per mouse [1]: 5

Nc1ccn([C@@H]2O[C@H](CO)[C@@H](O)C2(F)F)c(=O)n1 [gemcitabine, Gemcitabine]
INCIDENCE OF METASTASES [5]: 100% | NUMBER OF METASTASES PER HAMSTER, Hamster 1 [5]: 13 | NUMBER OF METASTASES PER HAMSTER, Hamster 2 [5]: 15 | NUMBER OF METASTASES PER HAMSTER, Hamster 3 [5]: 3 | NUMBER OF METASTASES PER HAMSTER, Hamster 4 [5]: 10 | NUMBER OF METASTASES PER HAMSTER, Hamster 5 [5]: 5 | INCIDENCE OF METASTASES ([5]; listed as GemC): 100% | mean tumor volume [1]: 380.7 mm^3 | # Mice with metastases [1]: 88% (7/8) | Average # metastases per mouse [1]: 13 | mean tumor growth [6]: 22% | INCIDENCE OF METASTASIS [2, 9]: 50% | PRE-SACRIFICE MORTALITY [2, 9]: 20% | PRE-SACRIFICE MORTALITY ([2]; gemcitabine monotherapy 100 mg/kg i.p., listed as GemC): 20%
